Like-named read-outs stand apart in the source and are kept apart here.
Experiments:
[1] = molecular target: Mcl-1/Bim interaction (Homo sapiens (Human), UniProt Q07820); assay: Cell Free Mcl-1: Bim Affinity Assay (Mcl-1 HTRF); type: binding; conditions: TR-FRET, recombinant human Mcl-1(171-327), biotin-Bim(51-76); read-out: Mel-1 HTRF IC50
Method in brief: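 IC50 values came from duplicate four-parameter fits of the 665/620 nm TR-FRET ratio, read after overnight incubation with Eu anti-6×His and streptavidin-Xlent detection reagents. Beforehand, serially diluted compounds sat 60 min with Mcl-1 residues 171-327 (0.1 nM) and biotinylated Bim 51-76 peptide (0.05 nM), pH 7.5 Hepes/NaCl/DTT buffer.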

[2] = tested on: OPM-2; assay: Cell Viability Assay (OPM-2 10 FBS); type: cell-based, human; conditions: OPM-2 cells, CellTiter-Glo, read-out: OPM-2 10% FBS IC50 IP
Method in brief: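 Compounds, serially diluted, were left on OPM-2 cells (3000 cells/well, 10% FBS RPMI 1640) for 16 h at 37° C. under 5% CO2.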

Mcl-1/Bim interaction, sequence (Q07820 171-327): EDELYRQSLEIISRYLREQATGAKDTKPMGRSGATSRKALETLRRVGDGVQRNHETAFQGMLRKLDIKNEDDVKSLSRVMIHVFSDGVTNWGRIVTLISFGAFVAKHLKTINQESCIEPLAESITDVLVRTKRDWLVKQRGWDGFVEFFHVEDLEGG

| Compound | IC50 [1] | IC50 ([2]; 16 h) | IC50 ([2]; Homo sapiens, OPM-2, 16 h) |
| --- | --- | --- | --- |
| C[C@@H]1[C@@H](C)CCC[C@@H]([C@H]2OC[C@@H](N3CC(Cl)C3)CO2)[C@@H]2CC[C@H]2CN2C[C@@]3(CCCc4cc(Cl)ccc43)COc3ccc(cc32)C(=O)NS1(=O)=O (single isomer, unassigned) [Example 56] | 1.98 nM | 1900 nM | – |
| C[C@@H]1[C@@H](C)CCC[C@H]([C@H]2OC[C@H](N)CO2)[C@@H]2CC[C@H]2CN2C[C@@]3(CCCc4cc(Cl)ccc43)COc3ccc(cc32)C(=O)NS1(=O)=O (relative stereo) [Example 18] | 1.37 nM | 1050 nM | – |
| C[C@@H]1[C@@H](C)CCC[C@@H]([C@H]2OC[C@H](N(C)C)CO2)[C@@H]2CC[C@H]2CN2C[C@@]3(CCCc4cc(Cl)ccc43)COc3ccc(cc32)C(=O)NS1(=O)=O (relative stereo) [Example 6, (1S,3′R,6′R,7′R,11′S,12′R)-6-CHLORO-7′-(TRANS-5-(DIMETHYLAMINO)-1,3-DIOXAN-2-YL)-11′,12′-DIMETHYL-3,4-DIHYDRO-2H,15′H-SPIRO[NAPHTHALENE-1,22′-[20]OXA[13]THIA[1,14]DIAZATETRACYCLO[14.7.2.0˜3,6˜.0˜19,24˜]PENTACOSA[16,18,24]TRIEN]-15′-ONE 13′,13′-DIOXIDE] | 2.09 nM | – | 557 nM |
| C[C@@H]1[C@@H](C)CCC[C@H](C2OCCCO2)[C@@H]2CC[C@H]2CN2C[C@@]3(CCCc4cc(Cl)ccc43)COc3ccc(cc32)C(=O)NS1(=O)=O [Example 8, (1S,3′R,6′R,7′S,11′S,12′R)-6-chloro-7′-(1,3-dioxan-2-yl)-11′,12′-dimethyl-3,4-dihydro-2H,15′H-spiro[naphthalene-1,22′-[20]oxa[13]thia[1,14]diazatetracyclo [14.7.2.0~3,6~.0~19,24~]pentacosa[16,18,24]trien]-15′-one 13′,13′-dioxide] | 1.67 nM | 7360 nM | – |
| C[C@@H]1[C@@H](C)CCC[C@H]([C@H]2O[C@H]3CN(C)C[C@H]3O2)[C@@H]2CC[C@H]2CN2C[C@@]3(CCCc4cc(Cl)ccc43)COc3ccc(cc32)C(=O)NS1(=O)=O (stereo in doubt) [Example 24, (1S,3′R,6′R,7′R,11′S,12′R)-6-chloro-11′,12′-dimethyl-7′-((2r,3aR,6aS)-5-methyltetrahydro-3aH-[1,3]dioxolo[4,5-c]pyrrol-2-yl)-3,4-dihydro-2H,15′H-spiro[naphthalene-1,22′-[20]oxa[13]thia[1,14]diazatetracyclo [14.7.2.0~3,6~.0~19,24~]pentacosa[16,18,24]trien]-15′-one 13′,13′-dioxide] | 0.709 nM | – | 532 nM |
| C[C@@H]1[C@@H](C)CCC[C@H]([C@H]2OC[C@H](N3C(=O)c4ccccc4C3=O)CO2)[C@@H]2CC[C@H]2CN2C[C@@]3(CCCc4cc(Cl)ccc43)COc3ccc(cc32)C(=O)NS1(=O)=O (relative stereo) [Example 44] | 2.08 nM | > 33300 nM | – |
| C[C@@H]1[C@@H](C)CCC[C@](C)([C@H]2OC[C@@H](N(C)C)CO2)[C@@H]2CC[C@H]2CN2C[C@@]3(CCCc4cc(Cl)ccc43)COc3ccc(cc32)C(=O)NS1(=O)=O [Example 65, (1S,3′R,6′R,7′S,11′S,12′R)-6-chloro-7′-(cis-5-(dimethylamino)-1,3-dioxan-2-yl)-7′,11′,12′-trimethyl-3,4-dihydro-2H,15′H-spiro[naphthalene-1,22′-[20]oxa[13]thia[1,14]diazatetracyclo [14.7.2.0~3,6~.0~19,24~]pentacosa[16,18,24]trien]-15′-one 13′,13′-dioxide] | 5.02 nM | – | 1560 nM |
| C[C@@H]1[C@@H](C)CCC[C@H](C2OCCCO2)[C@@H]2CC[C@H]2CN2C[C@@]3(CCCc4cc(Cl)ccc43)COc3ccc(cc32)C(=O)NS1(=O)=O [Example 7, (1S,3′R,6′R,7′S,11′S,12′R)-6-chloro-7′-(1,3-dioxan-2-yl)-11′,12′-dimethyl-3,4-dihydro-2H,15′H-spiro[naphthalene-1,22′-[20]oxa[13]thia[1,14]diazatetracyclo [14.7.2.0~3,6~.0~19,24~]pentacosa[16,18,24]trien]-15′-one 13′,13′-dioxide] | 0.949 nM | 1070 nM | – |
| C[C@@H]1[C@@H](C)CCC[C@@H]([C@H]2OC[C@@H](N3CCC3(C)C)CO2)[C@@H]2CC[C@H]2CN2C[C@@]3(CCCc4cc(Cl)ccc43)COc3ccc(cc32)C(=O)NS1(=O)=O (single isomer, unassigned) [Example 63] | 2.06 nM | 1150 nM | – |

The next compounds have a lower IC50 [1] than those just listed; values first:

| IC50 [1] | Compound | IC50 ([2]; 16 h) | IC50 ([2]; Homo sapiens, OPM-2, 16 h) |
| --- | --- | --- | --- |
| 0.612 nM | C[C@@H]1[C@@H](C)CCC[C@@H]([C@H]2OC[C@H](CN(C)C)O2)[C@@H]2CC[C@H]2CN2C[C@@]3(CCCc4cc(Cl)ccc43)COc3ccc(cc32)C(=O)NS1(=O)=O (single isomer, unassigned) [Example 33] | 319 nM | – |
| 0.568 nM | COCCN(C)[C@H]1CO[C@@H]([C@H]2CCC[C@H](C)[C@@H](C)S(=O)(=O)NC(=O)c3ccc4c(c3)N(C[C@@H]3CC[C@H]32)C[C@@]2(CCCc3cc(Cl)ccc32)CO4)OC1 [Example 72, (1S,3′R,6′R,7′S,11′S,12′R)-6-chloro-7′-(cis-5-((2-methoxyethyl)(methyl)amino)-1,3-dioxan-2-yl)-11′,12′-dimethyl-3,4-dihydro-2H,15′H-spiro[naphthalene-1,22′-[20]oxa[13]thia[1,14]diazatetracyclo [14.7.2.0~3,6~.0~19,24~]pentacosa[16,18,24]trien]-15′-one 13′,13′-dioxide] | 341 nM | – |
| 0.459 nM | C[C@@H]1[C@@H](C)C/C=C/[C@@H]([C@H]2OC[C@H](N(C)C)CO2)[C@@H]2CC[C@H]2CN2C[C@@]3(CCCc4cc(Cl)ccc43)COc3ccc(cc32)C(=O)NS1(=O)=O (relative stereo) [Example 96] | 314 nM | – |
| 0.308 nM | C[C@@H]1[C@@H](C)C/C=C/[C@H]([C@H]2OC[C@@H](N(C)C)CO2)[C@@H]2CC[C@H]2CN2C[C@@]3(CCCc4cc(Cl)ccc43)COc3ccc(cc32)C(=O)NS1(=O)=O (relative stereo) [Example 97] | 84 nM | – |
| 0.196 nM | CC[C@@H]1CCCC[C@H]([C@H]2OC[C@@H](N(C)C)CO2)C2CC[C@H]2CN2C[C@@]3(CCCc4cc(Cl)ccc43)COc3ccc(cc32)C(=O)NS1(=O)=O (stereo in doubt) [Example 74, (1S,3′R,6′S,7′S,12′R)-6-chloro-7′-(cis-5-(dimethylamino)-1,3-dioxan-2-yl)-12′-ethyl-3,4-dihydro-2H,15′H-spiro[naphthalene-1,22′-[20]oxa[13]thia[1,14]diazatetracyclo [14.7.2.0~3,6~.0~19,24~]pentacosa[16,18,24]trien]-15′-one 13′,13′-dioxide] | 108 nM | – |
| 0.098 nM | CC(=O)N1C[C@@H]2O[C@H]([C@H]3CCC[C@H](C)[C@@H](C)S(=O)(=O)NC(=O)c4ccc5c(c4)N(C[C@@H]4CC[C@H]43)C[C@@]3(CCCc4cc(Cl)ccc43)CO5)O[C@@H]2C1 [Example 37, (1S,3′R,6′R,7′S,11′S,12′R)-7′-((2s,3aR,6aS)-5-acetyltetrahydro-3aH-[1,3]dioxolo[4,5-c]pyrrol-2-yl)-6-chloro-11′,12′-dimethyl-3,4-dihydro-2H,15′H-spiro[naphthalene-1,22′-[20]oxa[13]thia[1,14]diazatetracyclo [14.7.2.0~3,6~.0~19,24~]pentacosa[16,18,24]trien]-15′-one 13′,13′-dioxide] | 148 nM | – |

Source: patent US11364248B2 (AMGEN INC., priority 2017, dated 2022)
